Laboratory results published in DBAASP.
Values after ≈ are worked out from the molar mass of the structure shown. Values joined by “and” are separate entries in the source; they are usually repeats but may differ in a detail not shown here. Identical values can stand only once.

Legend:
Test in all cases: ≥ marks a high value that may be exact or a test limit, other limits are often not marked, values filed in µg/mL are converted to µM
[1] = system: Escherichia coli ATCC 25922
[2] = system: Escherichia coli ATCC 54127
[3] = system: Pseudomonas aeruginosa ATCC 27853
[4] = system: Pseudomonas aeruginosa CIP A22
[5] = system: Staphylococcus aureus ATCC 25923
[6] = system: Bacillus subtilis VKM B-886
[7] = system: Candida albicans SC5314
[8] = system: Candida krusei IFM 56881
[9] = system: Candida parapsilosis ATCC 22019
[10] = system: Cryptococcus neoformans var. grubii H99
[11] = system: Escherichia coli ML-35p
[12] = system: Klebsiella pneumoniae CI 287
[13] = system: Micrococcus luteus VKM B-1314
[14] = system: Pseudomonas aeruginosa PAO1
[15] = system: Staphylococcus aureus 209P
[16] = system: Staphylococcus aureus ATCC 29213
[17] = system: Bacillus subtilis
[18] = system: Escherichia coli W160-37
[19] = system: Micrococcus luteus MT166
[20] = system: Pseudomonas putida NCIM 2102
[21] = system: Saccharomyces cerevisiae ATCC 8530
[22] = system: Staphylococcus aureus ATCC 8530
[23] = system: Candida albicans ATCC 90028
[24] = system: Escherichia coli
[25] = system: Listeria innocua
[26] = system: Micrococcus luteus
[27] = system: Pseudomonas aeruginosa ATCC 9027
[28] = system: Salmonella enterica subsp. enterica serovar Enteritidis
[29] = system: Staphylococcus aureus USA 100
[30] = system: Staphylococcus aureus USA 300
[31] = system: Acinetobacter baumannii ATCC 17987
[32] = system: Acinetobacter baumannii
[33] = system: Burkholderia cenocepacia 4813
[34] = system: Cutibacterium acnes C2
[35] = system: Cutibacterium acnes PJI2
[36] = system: Enterobacter cloacae 218R
[37] = system: Enterococcus faecalis ATCC 19433
[38] = system: Escherichia coli HB101
[39] = system: Escherichia coli O157
[40] = system: Klebsiella pneumoniae 1549216
[41] = system: Klebsiella pneumoniae ATCC 13883
[42] = system: Klebsiella pneumoniae KPLN649
[43] = system: Mycobacterium tuberculosis H37Rv
[44] = system: Pseudomonas aeruginosa PA14
[45] = system: Pseudomonas aeruginosa
[46] = system: Salmonella enterica subsp. enterica serovar Typhimurium ATCC 14028s
[47] = system: Salmonella typhimurium C587
[48] = system: Cupriavidus necator H16
[49] = system: Escherichia coli BL21(DE3)
[50] = system: Escherichia coli JM109
[51] = system: Pseudomonas putida GPp104
[52] = system: Enterococcus faecalis ATCC 29212
[53] = system: Staphylococcus epidermidis PIA 8400

## CC[C@H](C)[C@H](NC(=O)CNC(=O)[C@H](CCCCN)NC(=O)[C@H](CC(C)C)NC(=O)[C@H](CCSC)NC(=O)[C@H](CC(N)=O)NC(=O)[C@H](CCCCN)NC(=O)[C@H](Cc1c[nH]c2ccccc12)NC(=O)[C@H](CC(C)C)NC(=O)[C@H](C)N)C(=O)NCC(=O)N[C@@H](CCCCN)C(=O)N[C@@H](CC(C)C)C(=O)N[C@@H](C)C(=O)NCC(=O)N[C@@H](CCC(N)=O)C(=O)N[C@@H](C)C(=O)N[C@@H](C)C(=O)N[C@@H](CC(C)C)C(=O)NCC(=O)N[C@@H](C)C(=O)N[C@H](C(=O)N[C@@H](CCCCN)C(=O)N[C@H](C(=O)N[C@@H](CC(C)C)C(=O)N[C@H](C(=O)NCC(=O)N[C@@H](C)C(=O)O)C(C)C)[C@@H](C)O)C(C)C [ALWKNMLKGIGKLAGQAALGAVKTLVGA]
[1]
  MIC: 2.6 µM (≈ 7.23 µg/mL)
[2]
  MIC: 2.3 µM (≈ 6.39 µg/mL)
[3]
  MIC: 5 µM (≈ 13.9 µg/mL)
[4]
  MIC: 2.3 µM (≈ 6.39 µg/mL)
[5]
  MIC: 1.3 µM (≈ 3.61 µg/mL)

## CC[C@H](C)[C@@H]1NC(=O)CNC(=O)[C@H](CCCN=C(N)N)NC(=O)[C@H](Cc2ccc(O)cc2)NC(=O)[C@@H]2CSSC[C@H](NC1=O)C(=O)N[C@@H](Cc1ccc(O)cc1)C(=O)N[C@@H](CCCN=C(N)N)C(=O)N[C@@H](CCCCN)C(=O)N[C@H](C(=O)N[C@@H](CCCN=C(N)N)C(=O)O)CSSC[C@H](NC(=O)[C@H](Cc1c[nH]c3ccccc13)NC(=O)[C@@H](N)CCCCN)C(=O)N[C@@H](Cc1ccccc1)C(=O)N[C@@H](CCCN=C(N)N)C(=O)N[C@@H](C(C)C)C(=O)N2 [KWCFRVCYRGICYRKCR]
[6]
  MIC: 1 µM (≈ 2.24 µg/mL)
[7]
  MIC: 14.3 µM (≈ 31.9 µg/mL)
[8]
  MIC: 28.6 µM (≈ 63.9 µg/mL)
[9]
  MIC: 7.14 µM (≈ 16 µg/mL)
[10]
  MIC: 1.79 µM (≈ 4 µg/mL)
[11]
  MIC: 0.062 µM (≈ 0.139 µg/mL)
[12]
  MIC: 0.5 µM (≈ 1.12 µg/mL)
[13]
  MIC: 2 µM (≈ 4.47 µg/mL)
[14]
  MIC: 0.5 µM (≈ 1.12 µg/mL)
[15]
  MIC: 0.5 µM (≈ 1.12 µg/mL)
[16]
  MIC: 16 µM (≈ 35.8 µg/mL)

## CC[C@H](C)[C@@H]1NC(=O)[C@@H]2CCCN2C(=O)[C@H](CC(C)C)NC(=O)[C@@H]2CCCN2C(=O)[C@H]([C@@H](C)CC)NC(=O)[C@H](C)NC(=O)[C@H](Cc2ccc(O)cc2)NC(=O)[C@@H](NC(=O)[C@@H](NC(=O)[C@@H](N)CCCN=C(N)N)C(C)C)CSSC[C@@H](C(=O)N[C@@H](Cc2ccc(O)cc2)C(N)=O)NC1=O [RVCYAIPLPICY]
[17]
  MIC: 21.3 µM (≈ 29.9 µg/mL)
[18]
  MIC: 28.4 µM (≈ 39.9 µg/mL)
[19]
  MIC: 21.3 µM (≈ 29.9 µg/mL)
[20]
  MIC: 28.4 µM (≈ 39.9 µg/mL)
[21]
  MIC: ≥ 56.7 µM
[22]
  MIC: 21.3 µM (≈ 29.9 µg/mL)

## NC(N)=NCCC[C@H](N)C(=O)N[C@@H](Cc1ccc(O)cc1)C(=O)N[C@@H](Cc1cnc[nH]1)C(=O)O [RYH]
[23]
  MIC: ≥ 100 µM
[24]
  MIC: 4 µM (≈ 1.9 µg/mL)
[25]
  MIC: 1 µM (≈ 0.475 µg/mL)
[26]
  MIC: 4 µM (≈ 1.9 µg/mL)
[27]
  MIC: > 100 µM
[28]
  MIC: 1 µM (≈ 0.475 µg/mL)
[29]
  MIC: ≥ 100 µM
[30]
  MIC: ≥ 100 µM

## CC[C@H](C)[C@H](NC(=O)[C@H](CCCN=C(N)N)NC(=O)[C@@H](NC(=O)[C@H](C)NC(=O)[C@@H](NC(=O)[C@@H](NC(=O)[C@H](CC(C)C)NC(=O)[C@H](CCCN=C(N)N)NC(=O)[C@@H](N)C(C)C)[C@@H](C)CC)C(C)C)C(C)C)C(=O)N[C@@H](Cc1c[nH]c2ccccc12)C(=O)N[C@@H](CCCN=C(N)N)C(=O)N[C@@H](CCCN=C(N)N)C(N)=O [VRLIVAVRIWRR]
[31]
  MIC: ≥ 83.3 µM
[32]
  MIC: ≥ 83.3 µM
[33]
  MIC: ≥ 167 µM
[34]
  MIC: ≥ 41.6 µM
[35]
  MIC: ≥ 41.6 µM
[36]
  MIC: ≥ 41.6 µM
[37]
  MIC: ≥ 167 µM
[38]
  MIC: 20.8 µM (≈ 32 µg/mL)
[39]
  MIC: 20.8 µM (≈ 32 µg/mL)
[40]
  MIC: ≥ 41.6 µM
[41]
  MIC: 5.21 µM (≈ 7.99 µg/mL)
[42]
  MIC: 20.8 µM (≈ 32 µg/mL)
[43]
  MIC: 10.4 µM (≈ 16 µg/mL)
[44]
  MIC: ≥ 41.6 µM and 20.8 µM
[14]
  MIC: 41.6 µM (≈ 64 µg/mL)
[45]
  MIC: 12.4 µM (≈ 19 µg/mL)
[46]
  MIC: ≥ 41.6 µM
[47]
  MIC: ≥ 41.6 µM
[5]
  MIC: 167 µM (≈ 256 µg/mL)

## CC[C@H](C)[C@H](NC(=O)[C@H](Cc1ccc(O)cc1)NC(=O)[C@@H](NC(=O)[C@@H]1CCCN1C(=O)[C@H](CCCN=C(N)N)NC(=O)[C@H](CCCN=C(N)N)NC(=O)[C@@H](NC(=O)[C@@H](N)C(C)C)C(C)C)C(C)C)C(=O)N1CCC[C@H]1C(=O)N[C@@H](CCC(N)=O)C(=O)N1CCC[C@H]1C(=O)N[C@@H](CCCN=C(N)N)C(=O)N1CCC[C@H]1C(=O)N1CCC[C@H]1C(=O)N[C@@H](Cc1cnc[nH]1)C(=O)N1CCC[C@H]1C(=O)N[C@@H](CCCN=C(N)N)C(=O)N[C@@H](CC(C)C)C(=O)O [VVRRPVYIPQPRPPHPRL]
[48]
  MIC: ≥ 50 µM
[49]
  MIC: 1.25 µM (≈ 2.72 µg/mL)
[50]
  MIC: 12.5 µM (≈ 27.2 µg/mL)
[51]
  MIC: 25 µM (≈ 54.4 µg/mL)

## CC(C)C[C@H](NC(=O)[C@H](CCCN=C(N)N)NC(=O)[C@@H](N)Cc1ccc(O)cc1)C(=O)N[C@@H](CCCN=C(N)N)C(=O)N[C@H](C(=O)N[C@@H](CCCCN)C(=O)N[C@@H](Cc1c[nH]c2ccccc12)C(=O)N[C@@H](CCCCN)C(=O)N[C@@H](Cc1c[nH]c2ccccc12)C(N)=O)C(C)C [YRLRVKWKW]
[52]
  MIC: 37.5 µM and 74.9 µM
[1]
  MIC: 9.74 µM (≈ 13 µg/mL)
[3]
  MIC: 18.7 µM and 9.74 µM
[16]
  MIC: 9.74 µM (≈ 13 µg/mL)
[53]
  MIC: 4.5 µM and 9.74 µM
